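Test compounds were applied to cells in 96-well plates for 48 hours at 5 doses. GI50 = concentration required for 50% inhibition of growth.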 Activity calls are given as the source filed them. Cut-off read from the data, not from the text of the source: active = GI50 up to about 1.1 µM and inactive = higher.
Assays:
Assay in all cases: inhibition of tumour cell growth, NCI panel, 48 h
OVCAR-8 = system: OVCAR-8
IGROV-1 = system: IGROV-1
HCT-116 = system: HCT-116
COLO 205 = system: COLO 205
SK-MEL-2 = system: SK-MEL-2
OVCAR-5 = system: OVCAR-5
SF-268 = system: SF-268
EKVX = system: EKVX
SK-OV-3 = system: SK-OV-3
CAKI-1 = system: CAKI-1
OVCAR-4 = system: OVCAR-4
NCI-H23 = system: NCI-H23
RPMI-8226 = system: RPMI-8226
NCI-H226 = system: NCI-H226
RXF 393 = system: RXF 393

Measured: GI50

COc1ccc(/C=C2/C(=O)N(C(=O)c3ccc(Cl)cc3)N=C2C)cc1OC
inactive: OVCAR-8 > 100 µM | IGROV-1 > 100 µM | HCT-116 > 100 µM | COLO 205 > 100 µM | SK-MEL-2 > 100 µM | OVCAR-5 > 100 µM | SF-268 > 100 µM | EKVX > 100 µM | SK-OV-3 > 100 µM | CAKI-1 > 100 µM | OVCAR-4 > 100 µM | NCI-H23 > 100 µM | RPMI-8226 > 100 µM

COc1ccc(S(=O)(=O)N(C)CC(=O)O)cc1
inactive: OVCAR-8 > 100 µM | NCI-H226 > 100 µM | IGROV-1 > 100 µM | COLO 205 > 100 µM | SK-MEL-2 > 100 µM | OVCAR-5 > 100 µM | SF-268 > 100 µM | RXF 393 > 100 µM | EKVX > 100 µM | SK-OV-3 > 100 µM | CAKI-1 > 100 µM | OVCAR-4 > 100 µM | NCI-H23 > 100 µM | RPMI-8226 > 100 µM

Cc1ccc(C(=O)/C=C/c2ccccc2O)c(C)c1
inactive: OVCAR-8 > 100 µM | NCI-H226 > 100 µM | IGROV-1 > 100 µM | HCT-116 > 100 µM | COLO 205 > 100 µM | SK-MEL-2 > 100 µM | OVCAR-5 > 100 µM | SF-268 93.3 µM | RXF 393 > 100 µM | EKVX > 100 µM | SK-OV-3 > 100 µM | CAKI-1 > 100 µM | OVCAR-4 > 100 µM | NCI-H23 > 100 µM | RPMI-8226 18.7 µM

COc1ccccc1/C=N/N=C(\N)NO
inactive: OVCAR-8 > 10 µM | NCI-H226 28.4 µM | IGROV-1 96.4 µM | HCT-116 25.6 µM | COLO 205 18.9 µM | SK-MEL-2 23.8 µM | OVCAR-5 4.58 µM | SF-268 20.5 µM | RXF 393 28 µM | EKVX 18.9 µM | SK-OV-3 71.9 µM | CAKI-1 7.28 µM | OVCAR-4 38.4 µM | NCI-H23 45.2 µM | RPMI-8226 29.2 µM

c1ccc2c(c1)[Se]c1ccccc1[Se]2
inactive: OVCAR-8 > 100 µM | NCI-H226 44.1 µM | IGROV-1 47.6 µM | HCT-116 28.1 µM | COLO 205 > 100 µM | SK-MEL-2 > 100 µM | OVCAR-5 > 100 µM | SF-268 > 100 µM | RXF 393 61.8 µM | SK-OV-3 > 100 µM | CAKI-1 67.1 µM | OVCAR-4 23.4 µM | NCI-H23 63.5 µM | RPMI-8226 > 100 µM

Cc1cc(NC(=O)C2C3C=CC(O3)C2C(=O)O)no1 (stereo unspecified)
inactive: OVCAR-8 16.2 µM | NCI-H226 > 100 µM | IGROV-1 > 100 µM | HCT-116 17 µM | COLO 205 17.7 µM | SK-MEL-2 > 100 µM | OVCAR-5 > 100 µM | SF-268 24.3 µM | RXF 393 16.4 µM | EKVX > 100 µM | SK-OV-3 > 100 µM | OVCAR-4 88.1 µM | NCI-H23 > 100 µM | RPMI-8226 16.6 µM

Cc1ccc(S(=O)(=O)OC2CC=CC2)cc1
inactive: OVCAR-8 > 100 µM | NCI-H226 > 100 µM | IGROV-1 > 100 µM | HCT-116 > 100 µM | COLO 205 > 100 µM | SK-MEL-2 > 100 µM | OVCAR-5 > 100 µM | RXF 393 > 100 µM | EKVX > 100 µM | SK-OV-3 > 100 µM | CAKI-1 > 100 µM | OVCAR-4 > 100 µM | RPMI-8226 > 100 µM

O=C1NC(=O)C(CCC(=O)c2ccc3ccccc3c2)C(=O)N1
inactive: OVCAR-8 > 100 µM | NCI-H226 > 100 µM | IGROV-1 > 100 µM | HCT-116 > 100 µM | COLO 205 > 100 µM | SK-MEL-2 > 100 µM | OVCAR-5 > 100 µM | SF-268 > 100 µM | RXF 393 > 100 µM | EKVX > 100 µM | SK-OV-3 > 100 µM | CAKI-1 > 100 µM | OVCAR-4 > 100 µM | NCI-H23 > 100 µM

COc1cc(C2C(C(=O)O)=C(C)Oc3cc4c(cc32)OCO4)cc(OC)c1OC (stereo unspecified)
inactive: OVCAR-8 51.2 µM | IGROV-1 58.2 µM | HCT-116 37.1 µM | COLO 205 23.9 µM | RXF 393 11.6 µM | EKVX 58.5 µM | SK-OV-3 39.9 µM | CAKI-1 9.04 µM | OVCAR-4 50.8 µM | NCI-H23 54.2 µM | RPMI-8226 > 10 µM

CC(O)CN1C(=O)NC(Cc2ccccc2)C1=O (stereo unspecified)
inactive: OVCAR-8 > 100 µM | NCI-H226 > 100 µM | COLO 205 > 100 µM | SK-MEL-2 > 100 µM | OVCAR-5 > 100 µM | SF-268 > 100 µM | RXF 393 > 100 µM | EKVX > 100 µM | CAKI-1 > 100 µM | NCI-H23 > 100 µM

Cc1cc2c(c(C(N)=O)c1C)-c1ccccc1C2=O
inactive: OVCAR-8 > 100 µM | IGROV-1 > 100 µM | HCT-116 > 100 µM | COLO 205 > 100 µM | SK-MEL-2 > 100 µM | OVCAR-5 > 100 µM | SF-268 > 100 µM | RXF 393 > 100 µM | EKVX > 100 µM | SK-OV-3 > 100 µM | OVCAR-4 > 100 µM | NCI-H23 > 100 µM | RPMI-8226 > 100 µM

COc1ccccc1N1C(=O)/C(=C/c2ccc(N(CCC#N)CCC#N)cc2C)N=C1c1cc([N+](=O)[O-])ccc1Cl
inactive: OVCAR-8 > 100 µM | NCI-H226 > 100 µM | IGROV-1 > 100 µM | HCT-116 > 100 µM | COLO 205 > 100 µM | SK-MEL-2 > 100 µM | OVCAR-5 > 100 µM | SF-268 > 100 µM | EKVX > 100 µM | SK-OV-3 > 100 µM | CAKI-1 > 100 µM | OVCAR-4 20.6 µM | NCI-H23 > 100 µM | RPMI-8226 > 100 µM

CC(=O)Nc1cc(N(CCOS(C)(=O)=O)CCOS(C)(=O)=O)ccc1N=O
inactive: OVCAR-8 > 100 µM | NCI-H226 > 100 µM | IGROV-1 > 100 µM | HCT-116 > 100 µM | COLO 205 > 100 µM | SK-MEL-2 > 100 µM | OVCAR-5 > 100 µM | SF-268 > 100 µM | CAKI-1 > 100 µM | OVCAR-4 > 100 µM | NCI-H23 > 100 µM | RPMI-8226 > 100 µM

O=C(CCn1[nH]c(=O)c(Cl)c(Cl)c1=O)NO
inactive: OVCAR-8 > 100 µM | NCI-H226 > 100 µM | IGROV-1 > 100 µM | COLO 205 > 100 µM | SK-MEL-2 > 100 µM | OVCAR-5 > 100 µM | SF-268 > 100 µM | RXF 393 > 100 µM | EKVX > 100 µM | SK-OV-3 > 100 µM | CAKI-1 > 100 µM | OVCAR-4 > 100 µM | NCI-H23 > 100 µM | RPMI-8226 > 100 µM

COc1cccc(SSc2cccc(OC)c2C(=O)O)c1C(=O)O
inactive: OVCAR-8 > 100 µM | NCI-H226 > 100 µM | IGROV-1 > 100 µM | HCT-116 > 100 µM | COLO 205 > 100 µM | SK-MEL-2 > 100 µM | OVCAR-5 > 100 µM | SF-268 > 100 µM | RXF 393 > 100 µM | EKVX > 100 µM | SK-OV-3 > 100 µM | CAKI-1 > 100 µM | OVCAR-4 > 100 µM | NCI-H23 > 100 µM | RPMI-8226 > 100 µM
